The target of this test is T1, LRRK2 (Homo sapiens, UniProt Q5S007).
T1 construct: A BacMam virus expressing full length recombinant LRRK2 was purchased from Invitrogen; host or cells: SH-SY5Y human neuroblastoma cells transduced with BacMam LRRK2 virus
Description: Recombinant cellular LRRK2 AlphaScreen assay (LRRK2 Ser935 phosphorylation in SH-SY5Y cells over-expressing recombinant full length LRRK2). The following applies: 60 minutes compound incubation, read-out: pIC50 in the recombinant cellular LRRK2 AlphaScreen assay (converted). The test is classed as cell-based. The text has this: 2) Recombinant Cellular LRRK2 AlphaScreen Assay
To determine the activity of compounds against LRRK2 kinase activity in cells, the observed LRRK2 kinase-dependent modulation of LRRK2 Ser 935 phosphorylation (Dzamko et al., 2010, Biochem. J. 430: 405-413) was utilized to develop a quantitative 384 well plate-based immunoassay of LRRK2 Ser935 phosphorylation in the human neuroblastoma cell line SH-SY5Y, engineered to over-express recombinant full length LRRK2 protein.
A BacMam virus expressing full length recombinant LRRK2 was purchased from Invitrogen and amplified by inoculation of SF-9 cells at MOI 0.3 for 4-5 days in Sf-900 III SFM medium supplemented with 3% fetal bovine serum. Infected cell cultures were then centrifuged at 2000 g for 20 minutes, viral supernatant titer determined by anti-gp64 plaque assay and stored at 4° C.
Affinity-purified anti-phospho LRRK2 Ser935 sheep polyclonal antibody (Dzamko et al., 2010, Biochem. J. 430: 405-413) was biotinylated by standard methods (PerkinElmer). Anti-LRRK2 rabbit polyclonal antibody was purchased from Novus Biologicals. AlphaScreen Protein A IgG Kit (including acceptor and donor beads) was purchased from Perkin Elmer. […]
Serial dilutions of test compounds were prepared in Opti-MEM reduced serum media (Invitrogen) and 5.6 ul transferred from compound plate to cell assay plate to achieve a top final assay concentration of 10 uM. […] 10 ul of antibody/acceptor bead mix [(1/1000 biotinylated-pS935 LRRK2 antibody, 1/1000 total-LRRK2 antibody, 1/100 Acceptor beads in AlphaScreen detection buffer (25 mM Hepes (pH 7.4), 0.5% Triton X-100, 1 mg/ml Dextran 500 and 0.1% BSA)] was then added to each well and plates incubated for 2 hours at ambient temperature in the dark. 10 μl of donor beads solution (1/33.3 donor beads in AlphaScreen detection buffer) was then added to each well. Following incubation for a further 2 hours at ambient temperature in the dark, plates were read on an EnVision™ plate reader at emission 520-620 nm with excitation 680 nm. […]
In general terms: In Alpha technology, singlet oxygen from a donor bead excites a nearby acceptor bead.

Here are results for three compounds from patent publication US11034696B2, “Compounds for inhibiting LRRK2 kinase activity” (GLAXOSMITHKLINE INTELLECTUAL PROPERTY DEVELOPMENT LIMITED, priority 2017, dated 2021).

SMILES strings stand for the structures. Where “and” joins values, the source holds several entries; their conditions need not be identical. Equal values may be shown once. Where only a bound is given, the exact number is not on record here.

T1 sequence (Q5S007 whole entry): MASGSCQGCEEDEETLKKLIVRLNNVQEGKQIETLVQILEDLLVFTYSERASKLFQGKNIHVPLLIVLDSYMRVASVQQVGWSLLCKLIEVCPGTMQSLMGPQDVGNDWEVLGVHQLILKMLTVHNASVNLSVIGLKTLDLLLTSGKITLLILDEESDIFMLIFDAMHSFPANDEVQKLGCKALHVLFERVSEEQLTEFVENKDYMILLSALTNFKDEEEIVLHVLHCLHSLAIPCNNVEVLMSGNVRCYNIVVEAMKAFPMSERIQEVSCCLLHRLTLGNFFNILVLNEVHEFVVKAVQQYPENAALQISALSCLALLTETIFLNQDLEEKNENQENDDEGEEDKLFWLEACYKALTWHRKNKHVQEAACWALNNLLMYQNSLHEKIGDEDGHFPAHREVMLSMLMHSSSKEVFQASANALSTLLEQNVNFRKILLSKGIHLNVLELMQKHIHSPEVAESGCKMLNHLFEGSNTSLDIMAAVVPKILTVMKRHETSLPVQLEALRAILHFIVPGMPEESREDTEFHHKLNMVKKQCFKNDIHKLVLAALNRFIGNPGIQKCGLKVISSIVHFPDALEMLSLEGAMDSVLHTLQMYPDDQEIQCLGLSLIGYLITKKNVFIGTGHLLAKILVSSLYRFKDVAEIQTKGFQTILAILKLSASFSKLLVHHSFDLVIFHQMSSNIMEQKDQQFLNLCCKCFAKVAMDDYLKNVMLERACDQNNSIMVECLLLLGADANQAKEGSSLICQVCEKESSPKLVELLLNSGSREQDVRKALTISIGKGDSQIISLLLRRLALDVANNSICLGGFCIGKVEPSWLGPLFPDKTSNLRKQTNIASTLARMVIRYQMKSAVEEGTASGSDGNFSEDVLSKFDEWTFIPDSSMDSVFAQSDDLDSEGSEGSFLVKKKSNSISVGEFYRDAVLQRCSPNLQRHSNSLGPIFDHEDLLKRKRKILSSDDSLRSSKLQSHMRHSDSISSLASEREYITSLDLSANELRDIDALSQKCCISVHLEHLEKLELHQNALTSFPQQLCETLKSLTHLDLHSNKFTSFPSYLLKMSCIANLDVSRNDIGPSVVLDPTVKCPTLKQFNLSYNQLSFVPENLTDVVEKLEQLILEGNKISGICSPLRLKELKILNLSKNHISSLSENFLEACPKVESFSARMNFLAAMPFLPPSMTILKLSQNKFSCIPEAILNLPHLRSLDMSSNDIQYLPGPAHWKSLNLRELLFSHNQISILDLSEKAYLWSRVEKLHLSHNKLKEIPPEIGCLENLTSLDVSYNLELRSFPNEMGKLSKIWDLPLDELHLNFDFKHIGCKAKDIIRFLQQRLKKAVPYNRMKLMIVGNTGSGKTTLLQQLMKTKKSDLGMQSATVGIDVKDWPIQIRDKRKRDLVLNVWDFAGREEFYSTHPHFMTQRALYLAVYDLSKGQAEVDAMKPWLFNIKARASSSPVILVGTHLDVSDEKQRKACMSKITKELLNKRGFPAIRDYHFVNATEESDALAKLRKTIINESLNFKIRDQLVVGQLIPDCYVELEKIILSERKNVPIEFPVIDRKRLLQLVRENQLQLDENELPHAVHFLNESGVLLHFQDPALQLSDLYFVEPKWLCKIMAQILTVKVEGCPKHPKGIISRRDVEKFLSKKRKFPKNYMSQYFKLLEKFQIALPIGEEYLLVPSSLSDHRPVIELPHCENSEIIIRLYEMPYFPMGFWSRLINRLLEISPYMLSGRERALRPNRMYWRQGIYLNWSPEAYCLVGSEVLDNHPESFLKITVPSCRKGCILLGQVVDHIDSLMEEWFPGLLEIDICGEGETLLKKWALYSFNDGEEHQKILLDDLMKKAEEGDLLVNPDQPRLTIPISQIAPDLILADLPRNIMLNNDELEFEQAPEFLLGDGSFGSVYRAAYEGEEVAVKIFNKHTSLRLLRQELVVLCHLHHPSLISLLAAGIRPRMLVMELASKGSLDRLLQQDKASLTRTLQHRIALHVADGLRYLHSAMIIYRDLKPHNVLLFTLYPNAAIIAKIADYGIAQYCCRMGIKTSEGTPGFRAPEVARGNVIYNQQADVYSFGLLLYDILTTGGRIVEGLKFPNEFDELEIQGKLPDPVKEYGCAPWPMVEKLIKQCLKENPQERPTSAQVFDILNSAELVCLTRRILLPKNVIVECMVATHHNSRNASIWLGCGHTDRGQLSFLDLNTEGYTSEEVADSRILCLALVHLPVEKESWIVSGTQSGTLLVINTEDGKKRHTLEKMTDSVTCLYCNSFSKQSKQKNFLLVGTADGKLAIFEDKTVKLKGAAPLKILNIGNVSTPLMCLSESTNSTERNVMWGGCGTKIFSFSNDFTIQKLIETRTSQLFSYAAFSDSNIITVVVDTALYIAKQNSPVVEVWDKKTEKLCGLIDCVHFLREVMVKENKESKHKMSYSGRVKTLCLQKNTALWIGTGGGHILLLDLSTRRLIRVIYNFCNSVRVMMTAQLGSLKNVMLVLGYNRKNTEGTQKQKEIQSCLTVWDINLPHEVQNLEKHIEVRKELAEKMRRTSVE

`COc1nc(N2CCN3CCC[C@@H]3C2)cc(-n2ncc3cc(C)c(C4CCN(C5COC5)CC4F)cc32)n1` (single isomer, unassigned) [Example A-1]: the IC50 is at most 100 nM.

For `COc1nc(N2CCN3CCC[C@H]3C2)cc(-n2ncc3cc(C)c(C4CCN(C5COC5)CC4F)cc32)n1` (single isomer, unassigned) [Example A-2], the IC50 is at most 100 nM.

Regarding `COc1nc(N2CCN3CCOCC3C2)cc(-n2ncc3cc(C)c(C4CCN(C5COC5)CC4)cc32)n1` (single isomer, unassigned) [Example A-13, 8-(2-methoxy-6-(5-methyl-6-(1-(oxetan-3-yl)piperidin-4-yl)-1H-indazol-1-yl)pyrimidin-4-yl)octahydropyrazino[2,1-c][1,4]oxazine], the IC50 was 7.94 nM and ≤ 100 nM.
